{
  "source": "patent US11033524B2",
  "about": "“Methods and compositions for treating disorders associated with cortico-hippocampal hyperactivity” (RAMOT AT TEL-AVIV UNIVERSITY LTD., priority 2016, dated 2021)",
  "key": {"hippocampal cultures [1]": {"system": "hippocampal cultures", "assay": "firing rate homeostasis: baclofen perturbation in MEA cultures", "format": "cell-based", "description": "The stable reduction in MFR induced by teriflunomide could have been the result of either impairment of homeostatic compensation mechanisms, or a change in a firing set-point value. A perturbation of firing rate in vivo results in re-normalization to its set-point level 2 days following perturbation through homeostatic mechanisms (Hengen et al., 2013). […] In order to determine the role DHODH inhibition in homeostatic process, we added 10 μM baclofen following 12 hr incubation with teriflunomide (FIG. 7)."}, "hippocampal cultures [2]": {"system": "hippocampal cultures", "settings": "returns to baseline level after 2 days (Slomowitz et al., 2015); cited from earlier work"}, "hippocampus": {"system": "hippocampus", "settings": "low-dose, MCI patients (Bakker et al., 2012); cited from earlier work"}, "AD mouse models": {"system": "AD mouse models", "settings": "AD mouse models (Sanchez et al., 2012); cited from earlier work"}, "[3]": {"system": "cultured hippocampal neurons", "assay": "multi-electrode array (MEA) recording of spiking activity / mean firing rate", "format": "cell-based", "settings": "for effect of teriflunomide on MFR in DHODH knockdown cultures: 50 μM teriflunomide in shDHODH-infected cultures", "description": "In order to test how DHODH targeting affects neuronal activity, we examined the effect of the DHODH inhibitor teriflunomide on cultured hippocampal neurons grown on a multi-electrode chip (MEA) that allows a long-term monitoring of spiking activity from many neurons simultaneously (FIGS. 1A-1C).\nIn order to test the specificity of teriflunomide effect on firing rate, we used a lentiviral-based shRNA delivery system (shDHODH; TRCN0000294665, Sigma Aldrich) to knockdown DHODH expression in hippocampal cultures.\nIn order to test whether the change in MFR resulting from DHODH inhibition is induced by the reduction of available uridine (a precursor of pyrimidines) or results from a change in the mitochondrial function, we co-applied 100 μM uridine mono-phosphate with teriflunomide in MEA recordings."}, "hippocampal neurons [4]": {"system": "hippocampal neurons", "assay": "intrinsic excitability: action potentials evoked by somatic current injections (F-I curves)", "format": "cell-based", "settings": "teriflunomide incubation", "description": "Modulation of intrinsic excitability is an important facet of neuronal adaptation. In this experiment we elicited action potentials (APs) in response to increasing somatic current injections ranging from 0 to +500 pA (F-I curves) in the presence of postsynaptic receptor blockers (FIGS. 3A-3B). As found, teriflunomide induced a reduction in the maximal firing frequency from 31.4±2.29 Hz to 17.2±3.34 after 4 hr of incubation, and to 16.25±3.06 Hz after 2 days of incubation (FIGS. 3B-3C). Input resistance was not affected by teriflunomide application (FIGS. 3D-3E)."}, "hippocampal neurons [5]": {"system": "hippocampal neurons", "assay": "inhibition-excitation (I/E) ratio from sEPSCs and sIPSCs (integrated conductances GE, GI)", "format": "cell-based", "description": "The inhibition-excitation (I/E) ratio constitutes an important factor in firing rate homeostasis, and in pathology of epilepsy. To assess the effects of DHODH inhibition on the I/E ratio, the spontaneous excitatory and inhibitory postsynaptic currents (sEPSCs, sIPSCs, respectively) were isolated at the same cell based on the reversal potentials of α-amino-3-hydroxy-5-methyl-4-isoxazolepropionic acid receptor (AMPAR)-mediated excitatory and GABAAR-mediated inhibitory currents, and the integrated excitatory (FIG. 4A) and inhibitory conductance's (GE, GI, respectively) were calculated (FIGS. 4B-4D)."}, "hippocampal neurons [6]": {"system": "hippocampal neurons", "assay": "mEPSC recording (excitatory quantal events)", "format": "cell-based", "description": "In this experiment we tested whether DHODH inhibition affects excitatory quantal events, by recording mEPSCs from hippocampal neurons under control conditions and 2 days following teriflunomide application (FIG. 5). As found, chronic teriflunomide incubation triggered a significant decrease of ˜26% in mEPSC amplitude (FIGS. 5A-5B)."}, "[7]": {"system": "pilocarpine-induced seizures", "assay": "pilocarpine model of TLE, behavioral seizure duration", "format": "in vivo", "settings": "15 mg/kg IP daily for 3 days, pilocarpine 330 mg/kg IP, C57 male mice, p=0.0157", "description": "In order to determine the potential therapeutic benefit of DHODH inhibition for epilepsy treatment, we used the pilocarpine model of TLE, which is one of the most common mouse models that recapitulates many aspects of the human pathology. The pilocarpine model of TLE appears to be highly isomorphic with the human disease including induction of acute status epilepticus, and latent period followed by the appearance of spontaneous recurrent seizures, as well as the occurrence of widespread lesions in the CNS (Curia et al., 2008). These features make it highly suitable for testing the efficacy of antiepileptic drugs (Leite et al., 2002). We performed intraperitoneal (IP) daily injections of teriflunomide (15 mg/kg) or vehicle for 3 days, in 6-week-old male mice of C57 background. On the third day, mice were injected subcutaneously (SC) with 2 mg/kg scopolamine to prevent peripheral effects, and 30 min later with 330 mg/kg pilocarpine IP. […] Because seizure duration correlates with hippocampal pathology in the pilocarpine model (Mazzuferi et al., 2012), these in vivo results emphasize the potential of DHODH inhibition as a therapeutic approach in the most common form of epilepsy."}, "[8]": {"system": "CA3-CA1 synaptic transmission", "assay": "fEPSP recording in acute hippocampal slices", "description": "Having established an essential role of DHODH activity in regulating MFR and E/I balance in hippocampal cultures, we asked whether acute DHODH inhibition modulates basal synaptic transmission in a more intact preparation—acute hippocampal slices. We evoked electrical stimulation in CA3 axons, comprising the Schaffer Collateral (SC) pathway of the hippocampus, and recorded the extracellular field excitatory postsynaptic potentials (fEPSP) in the stratum radiatum. We estimated the effect of teriflunomide (50 μM) on basal CA3-CA1 synaptic transmission evoked by low frequency stimulation of 0.1 Hz.\nNext, we examined how DHODH inhibition affects short-term synaptic plasticity evoked by high-frequency spike bursts. This type of plasticity plays an important role in working memory function."}, "[9]": {"system": "CA3-CA1 hippocampal connections", "assay": "in vivo fEPSP recording after ICV injection", "settings": "ICV 100 mM/1 μl daily for 3 days, bursts of 3 stimuli at 50 Hz, anesthetized mice", "description": "Finally, we used intracerebroventricular (ICV) injection of teriflunomide to test its effect on hippocampal synaptic plasticity in vivo. For this, we injected teriflunomide (100 mM/1 μl daily) for 3 consecutive days and then performed electrophysiological fEPSP recording in vivo in anesthetized (2% isoflurane) mice. The recording electrodes were placed in the CA1 stratum radiatum, while the stimulating electrode was paced at the Schaffer Collateral fibers. We examined how inhibition of DHODH in the brain affects short-term synaptic plasticity in the hippocampus evoked by high-frequency spike bursts."}},
  "note": "“Also recorded” adds a separate entry of the source.",
  "data": [
    {"smiles": "NCC(CC(=O)O)c1ccc(Cl)cc1", "note": "(stereo not drawn) [baclofen]", "values": [
      {"measurement": "MFR acutely after baclofen", "setting": "hippocampal cultures [1]; 10 μM baclofen added in the presence of teriflunomide", "value": "0.3678±0.08", "unit": "Hz"},
      {"measurement": "MFR stabilized over a 2-day period after baclofen", "setting": "hippocampal cultures [1]; 10 μM baclofen in the presence of teriflunomide, 48 h", "value": "2.00±0.35", "unit": "Hz"},
      {"measurement": "firing rate after baclofen alone", "setting": "hippocampal cultures [2]", "value": "profound inhibition"}
    ]},
    {"smiles": "CC[C@@H](C(N)=O)N1CCCC1=O", "note": "[levetiracetam]", "values": [
      {"measurement": "memory", "setting": "hippocampus", "value": "improvement"},
      {"measurement": "metabolic hyperactivity in the hippocampus", "setting": "hippocampus", "value": "reduces"},
      {"measurement": "brain hyperactivity", "setting": "AD mouse models", "value": "reduces"},
      {"measurement": "cognitive impairments", "setting": "AD mouse models", "value": "improves"}
    ]},
    {"smiles": "C/C(O)=C(\\C#N)C(=O)Nc1ccc(C(F)(F)F)cc1", "note": "[teriflunomide, (2Z)-2-cyano-3-hydroxy-N-[4-(trifluoromethyl)phenyl]but-2-enamide]", "values": [
      {"measurement": "effect of teriflunomide on MFR in DHODH knockdown cultures", "setting": "[3]", "value": "did not produce long-term changes in MFR"},
      {"measurement": "effect of teriflunomide on MFR in DHODH knockdown cultures", "setting": "[3]; listed as Teriflunomide", "value": "did not have a significant effect"},
      {"measurement": "neuronal mean firing rate (MFR)", "setting": "[3]; 50 μM teriflunomide, after 4 h of application, baseline 3.95±0.27 Hz", "value": "1.58±0.17", "unit": "Hz"},
      {"measurement": "stability of the lower MFR induced by teriflunomide", "setting": "[3]; 50 μM teriflunomide, time following application", "value": "stable for 14 hr"},
      {"measurement": "reduction in MFR with co-applied uridine", "setting": "[3]; 100 μM uridine mono-phosphate co-applied with 50 μM teriflunomide, timescale of 2 days", "value": "does not occlude the reduction in maximum firing rate (MFR); also recorded: did not occlude the effect of teriflunomide on MFR; also recorded: did not occlude the reduction in MFR"},
      {"measurement": "input resistance (Rin)", "setting": "hippocampal neurons [4]", "value": "no change; also recorded: not affected"},
      {"measurement": "I/E ratio (GI/GE per neuron)", "setting": "hippocampal neurons [5]; 4 hr to 2 days of teriflunomide incubation", "value": "elevated and remained high; also recorded: significant and stable increase"},
      {"measurement": "average integrated excitatory conductance (GE)", "setting": "hippocampal neurons [5]; 2 days of teriflunomide incubation", "value": "remained lower for 2 days; also recorded: stable during 2 days of incubation"},
      {"measurement": "average integrated excitatory conductance (GE)", "setting": "hippocampal neurons [5]; after 4 hr of teriflunomide incubation", "value": "dramatic decrease"},
      {"measurement": "integrated inhibitory conductance (GI)", "setting": "hippocampal neurons [5]; after either 4 hr or 2 days of teriflunomide incubation", "value": "no significant change; also recorded: no significant reduction"},
      {"measurement": "decrease in mEPSC amplitude", "setting": "hippocampal neurons [6]; 2 days teriflunomide incubation vs control", "value": 26, "unit": "%"},
      {"measurement": "mEPSC frequency", "setting": "hippocampal neurons [6]; 2 days teriflunomide incubation, p=0.08", "value": "not significantly affected; also recorded: did not reach statistical significance"},
      {"measurement": "MFR, new lower baseline value", "setting": "hippocampal cultures [1]; 12 hr (overnight) incubation with 50 μM teriflunomide, original baseline 4.30±0.0.44 Hz", "value": "2.50±0.38", "unit": "Hz"},
      {"measurement": "behavioral seizure duration", "setting": "[7]", "value": "significantly reduces"},
      {"measurement": "fEPSP amplitude (basal CA3-CA1 transmission)", "setting": "[8]; 50 μM teriflunomide, 0.1 Hz stimulation", "value": "gradual reduction"},
      {"measurement": "short-term synaptic facilitation (relative fEPSP amplitude within the burst)", "setting": "[8]; bursts of 5 stimuli at 50 Hz, 30 min after teriflunomide", "value": "profoundly increased"},
      {"measurement": "short-term synaptic facilitation in vivo", "setting": "[9]", "value": "increase"}
    ]}
  ]
}
